This note sets out measurements from US12171203B2, “Transgenic biosensor” (KDT, Inc., priority 2011, dated 2024).

Holding throughout (format): in vivo, C. elegans
Data set [1] has as its system hsp-16's (hsp-16.2, hsp-16.41) promoter reporters. Put plainly: two-color nematode biosensor panel, plate reader assay, hsp-16 reporters. The settings on record: cadmium 1 mM, NGM plates, 15 hrs; population-normalized change relative to unexposed control. The source says:
(§1) Responses are population-normalized changes relative to unexposed control. Error bars indicate […] of 2 to 6 independent measurements. The label “2 line” indicates data derived from combining responses of two independently-derived MosSCI lines for the same reporter.
(§2) The seven different promoters used to create the lines were obtained from genes involved in oxidative stress response. Two genes used were alpha cystallins which respond to cytoplasmic heat shock (hsp-16.2 and hsp-16.41) (David et al. Environ. Toxicol. Chem 2003 January; 22(1):111-118; Hong et al. J. Mol. Biol 2004 November; 344(2):369-381; Candido E P M. Prog. Mol. Subcell. Biol 2002; 28:61-78; Dengg et al. J Pharmacol Toxicol Methods 2004 December; 50(3):209-214; and Strayer et al. FASEB J 2003 December; 17(15):2305-2307). […] The resulting hsRFP reporter construct expresses red fluorescence in cell nuclei. […]
(§3) Changes in expression were quantified with a plate reader assay. […]

For a further data set, the system named is nematode population. Description: chronic toxin exposure, effect on nematode population size. The settings on record: chronic exposure for 72 hrs, various concentrations. As to the method:
FIGS. 4A, B, and C show the population effects of chronic toxin exposure.
Advantageously, the transgenic animals described in these examples can have a control reporter (e.g., constitutively expressed). Exposure to some selected agents or toxins can lead to shortened life-span, lower brood sizes or other effects that need to be controlled. The problem becomes most pronounced in chronic assays. […] Thus, it was determined a control for population mass differences between assay wells is desirable. Introduction of a second constitutively expressed reporter gene can be used to control for various population differences.

The next data set relates to hsp-4 promoter reporter. Description: two-color nematode biosensor panel, plate reader assay, hsp-4 reporter. To be noted: cadmium 1 mM, NGM plates, 15 hrs; population-normalized change relative to unexposed control.
Text: as §1, §2, §3

Another data set has as its system Phsp-16::hRFP reporter. Put plainly: fluorescent plate reader assay of toxin dosage sensitivity, hsp-16::hRFP nematodes. The settings on record: 24 hr exposure, ~600 worms per well, assayed in triplicate; read-out: EC50 of red fluorescence response of Phsp-16::hRFP reporter. The source says:
FIGS. 3A, B, and C show the fluorescence plate-reader sensitivity and toxin response.
For instance, a protein homeostasis reporter was created by fusing heat shock protein to a nuclear localized red fluorescent protein (hsp-16.42::hRFP)(the materials and methods for the construction of the transgenic organism are described in more detail in the examples below). Exposure to heat toxicity generates induction of nuclear localization. This heat shock gene reporter was screened for gene induction capacity using a heat-shock protocol. The hsp-16::hRFP construct is exposed to a 1 hr incubation at 30 C. Gene induction was screened 4 to 24 hrs after heat shock. Significant red fluorescence is observed in the nuclei of heat-shocked worm relative to control (FIG. 5).
Toxin sensitivity of hsp-16 was confirmed with exposure to heavy metals and metalloids. To develop a rapid screen for the hsp-16::hRFP expression, a fluorescent plate reader assay was developed. To test the sensitivity of this assay, a titrating concentration of nematodes were exposed to heat shock. The worms were transferred to a 96 well plate and red fluorescence was quantified. Good sensitivity for a red fluorescence signal occurs at concentrations of 50 or more worms (FIG. 3A). Next, the toxin dosage sensitivity was measured.

For a further data set, the system named is ugt-1 promoter reporter. Description: two-color nematode biosensor panel, plate reader assay, ugt-1 reporter. The settings on record: cadmium 1 mM, NGM plates, 15 hrs; population-normalized change relative to unexposed control.
Text: as §1, §2, §3

The subject of data set [2] is metallothionein gene (mtl-2) promoter reporter. Description: two-color nematode biosensor panel, plate reader assay, mtl-2 reporter. To be noted: cadmium 1 mM, NGM plates, 15 hrs; population-normalized change relative to unexposed control.
Text: as §1, §2, §3

`[Cl][Cd][Cl]` [cadmium, cadmium chloride]: the “induction of expression from hsp-16's reporters” value in data set [1] was “only mildly induced”. The “effect on population size” value with nematode population is on record as “significant population effects”. Besides, the “induction of expression from hsp-4 reporter” value in the data set on hsp-4 promoter reporter was “only mildly induced”. Moreover, in the data set with Phsp-16::hRFP reporter, the EC50 is roughly 200 µM. In the data set with ugt-1 promoter reporter, the “induction of expression from ugt-1 reporter” value is listed as “only mildly induced”. Moreover, in data set [2], the “induction of metallothionein gene expression (reporter)” value is recorded as “primarily induced”.
Turning to sodium bis-arsenite [arsenic], the EC50 in the data set on Phsp-16::hRFP reporter is roughly 1500 µM.
